The values that follow come from a melting point compilation (Tetko et al.).

`C=CCN(CC=C)C(=O)c1ccc(N)cc1` yielded a melting point of 104 to 106 °C.

On to `Nc1nnc(SCc2ccccc2)[nH]1`, for which the melting point fell in the range of 99 to 101 °C.

Compound `Nc1nc2c(s1)COCC2` came in with a melting point of 144 to 146 °C.

Turning to `COc1ccccc1-c1nn(-c2ccccc2)cc1C(=O)O`, the melting point fell in the range of 195 to 197 °C.

In the case of `Cc1ccc(-c2cc(CS(=O)(=O)Cl)on2)cc1`, the melting point was 119 to 121 °C.

Compound `CC1(C(=O)O)CCc2ccccc2C1` (configuration not stated) came in with a melting point of 105 to 107 °C.

Consider `CS(=O)(=O)c1ccsc1N`, for which the melting point was 90 to 92 °C.

In the case of `O=C(O)C(CO)NS(=O)(=O)c1ccc(Br)cc1` (configuration not stated), the melting point is 239 to 241 °C.

Consider `Nc1nnc(-c2ccc(Br)c(F)c2)s1`, for which the melting point fell in the range of 219 to 221 °C.

Turning to `Nc1cc(Br)ccc1-n1cncn1`, the melting point was 114 to 116 °C.

`O=C(Nc1ccccc1F)Nc1cccc2c1CCCN2` displayed a melting point of 204 to 206 °C.

Compound `Cc1sc2nc(N)[nH]c(=O)c2c1C` had a melting point of 353 to 355 °C.

The compound `CCNC(=S)n1ncc(C(=O)OCC)c1N` displayed a melting point of 92 to 96 °C.

As to `O=C(O)CSCC(=O)c1ccccc1`, the melting point was 95 to 97 °C.

Regarding `O=C(O)Cc1cc(=O)n(-c2ccccn2)[nH]1`, the melting point was in the range of 98 to 100 °C.

Take `CC(C)(C)OC(=O)N1CC(O)CC1C(=O)O` (configuration not stated): the melting point lay in the range of 145 to 147 °C.

In turn, `CCOC(=O)Nc1ccc(N)cc1C#N` yielded a melting point of 166 to 168 °C.

With `CC1CNCCC1NC(=O)OC(C)(C)C` (configuration not stated), the melting point fell in the range of 104 to 106 °C.

The compound `CC(Oc1ccc(F)cc1)C(=O)NN` (configuration not stated) came in with a melting point of 164 to 167 °C.

The compound `Cc1cc(N)nn1C` returned a melting point of 49 to 51 °C.

As for `O=C1CCSc2ccc(Br)cc21`, the melting point was in the range of 49 to 51 °C.

For the compound `COC(=O)c1ccc(C(Br)Br)cc1`, the melting point lay in the range of 42 to 45 °C.

With `CC(=O)NCc1cccc(C(=O)O)c1`, the melting point fell in the range of 166 to 168 °C.

Compound `Cc1nc(C(C)(C)O)n[nH]1` returned a melting point of 185 to 187 °C.

Regarding `O=C(O)c1cc2c(cc1Cl)N1CCCCCC1=NS2(=O)=O`, the melting point fell in the range of 251 to 253 °C.

With `Cc1c(Cl)cc(S(N)(=O)=O)cc1[N+](=O)[O-]`, the melting point fell in the range of 181 to 183 °C.

On to `Cc1ccc(CNC(=O)CCl)cc1`, for which the melting point is 117 to 119 °C.

`Cc1n[nH]c(-c2ccc(N)cc2)n1` showed a melting point of 179 to 181 °C.

The compound `CCOc1ccc(S(N)(=O)=O)cc1Br` yielded a melting point of 139 to 141 °C.

With `CC(C)(C)Oc1ccc(C(=O)O)cc1`, the melting point was 139 to 141 °C.

In turn, `O=C(O)C1CCN(C(=O)N2CCOCC2)CC1` yielded a melting point of 131 to 133 °C.

In turn, `CN1CCN(Cc2ccc(N)cc2)CC1` had a melting point of 96 to 98 °C.

Turning to `O=C1Nc2cc(SCc3ccccc3)ccc2C1=O`, the melting point fell in the range of 248 to 250 °C.

`CC(C)(C(N)=S)c1ccccc1` returned a melting point of 99 to 101 °C.

On to `c1nc(N2CCOCC2)c2nc[nH]c2n1`, for which the melting point lay within 301 to 303 °C.

As for `CC(NO)c1ccccc1` (configuration not stated), the melting point lay within 73 to 75 °C.

`COc1cc(S(N)(=O)=O)ccc1N` returned a melting point of 142 to 144 °C.

On to `CC1CC1C(=O)Nc1ccc(F)cc1C(=O)O` (configuration not stated), for which the melting point lay within 173 to 175 °C.

`O=C(O)CCN1C(=O)COc2cc(Br)ccc21` yielded a melting point of 153 to 155 °C.

Compound `O=C(O)c1cc(C2CC2)nc2ccccc12` displayed a melting point of 208 to 210 °C.

Compound `CC(C)Oc1ccc(S(N)(=O)=O)c2ccccc12` had a melting point of 95 to 97 °C.

Consider `Cc1cc(C)cc(C(=O)/C=C2\NC(=O)CS2)c1`, for which the melting point lay within 163 to 165 °C.

Compound `O=C(O)c1ccc(=O)n(Cc2ccccc2Cl)c1` gave a melting point of 182 to 184 °C.

`O=c1[nH]c(CCl)nc2ccc(Cl)cc12` registered a melting point of 249 to 251 °C.

Regarding `CNCc1ccc(O)cc1`, the melting point was in the range of 103 to 105 °C.

`Cc1ccc(C(=O)N2CCSCC2)cc1O` came in with a melting point of 159 to 161 °C.

`Cc1cnn(-c2ccc(C(=O)O)cc2)c1`: the melting point lay within 240 to 242 °C.

With `CCNc1ccc(S(=O)(=O)C(F)(F)F)cc1N`, the melting point lay within 149 to 151 °C.

`Cc1nn(C)c(C)c1C(=O)NC1(C(=O)O)CCCC1` came in with a melting point of 235 to 237 °C.

In turn, `CC(N)C(=O)Nc1ccc(-n2cncn2)cc1` (configuration not stated) showed a melting point of 169 to 171 °C.

Regarding `COc1cc(C(=O)O)ccc1OCC(N)=O`, the melting point fell in the range of 257 to 259 °C.

For `CCOC(=O)c1cc(-c2ccccc2)sc1N`, the melting point lay within 118 to 120 °C.

Compound `CCC(C)C(=O)N1CCCC(C(=O)O)C1` (configuration not stated) displayed a melting point of 118 to 120 °C.

As to `COc1ccc(-c2nn(-c3ccccc3)cc2C(=O)O)cc1OC`, the melting point is 188 to 190 °C.

The compound `O=C(NCc1ccco1)OCC(F)(F)F` gave a melting point of 35 to 37 °C.

Compound `CC1(O)CCNC1` (configuration not stated) came in with a melting point of 37 to 39 °C.

Compound `COc1cccc2c1C(=O)CC2` displayed a melting point of 99 to 102 °C.

On to `O=C1CCCc2c(Br)cccc21`, for which the melting point lay within 50 to 52 °C.

`NNc1nc2ccccc2[nH]1` had a melting point of 80 to 82 °C.

In turn, `O=C(O)Cc1cc2c(ccc3ccccc32)o1` returned a melting point of 166 to 168 °C.

Compound `CC(=O)Nc1c(C)cc(N)cc1C` registered a melting point of 204 to 206 °C.

On to `Cc1ccc(-n2[nH]c(C(=O)O)cc2=O)cc1`, for which the melting point was in the range of 259 to 261 °C.

In turn, `O=C(O)CCNC(=O)c1ccc2ccccc2c1` registered a melting point of 179 to 181 °C.

`COc1ccc(OC)c(-c2nn(-c3ccccc3)cc2C(=O)O)c1` displayed a melting point of 174 to 176 °C.

Regarding `CS(=O)(=O)Cc1c(C(=O)O)oc2ccccc12`, the melting point was 218 to 220 °C.

Compound `CC(C)C(NC(N)=O)C(=O)O` (configuration not stated) came in with a melting point of 203 to 207 °C.

The compound `COC(=O)c1cc(Cl)cc(Cl)c1N` registered a melting point of 65 to 67 °C.

`CCCCN(CC)c1ccc(C(=O)O)cc1` displayed a melting point of 137 to 139 °C.

In turn, `CCC(C)n1nccc1N` (configuration not stated) registered a melting point of 30 to 32 °C.

For the compound `COC(=O)c1cc(N)ccc1F`, the melting point lay within 84 to 86 °C.

Take `COC(=O)NCc1ccc(N)cc1`: the melting point is 95 to 97 °C.

`CSc1ccc(C(C)=O)cc1F` showed a melting point of 71 to 73 °C.

Regarding `CCOCCn1c(N)cc(=O)[nH]c1=O`, the melting point fell in the range of 257 to 259 °C.

Turning to `CNc1ncccc1C#N`, the melting point lay in the range of 87 to 89 °C.

As to `Cc1cc2nc(C)c(CCC(=O)O)c(C)n2n1`, the melting point is 260 to 262 °C.

`COc1cc(C=O)ccc1OCc1ccncc1` had a melting point of 106 to 108 °C.

In the case of `Nc1ccc(F)c(NC(=O)Cn2cncn2)c1`, the melting point was 194 to 196 °C.

Compound `Cc1nn(C)c2c1NCC1CCCN21` (configuration not stated) had a melting point of 159 to 161 °C.

As for `Nc1ccccc1C(=O)NCc1cccnc1`, the melting point lay within 119 to 121 °C.

For `O=C(Cc1ccccc1)C(Br)c1ccccc1` (configuration not stated), the melting point lay in the range of 47 to 49 °C.

`O=C(O)CCNC(=O)c1ccccc1Cl` came in with a melting point of 82 to 84 °C.

In turn, `Nc1cc(C(=O)O)ccc1Br` showed a melting point of 226 to 230 °C.

For the compound `Cc1ncc(C=CC(=O)O)s1`, the melting point lay in the range of 194 to 196 °C.

`COc1ccc(OC)c2[nH]c(C(=O)O)cc12` registered a melting point of 201 to 203 °C.

`CCOC(=O)c1sc(-c2ccc(Cl)cc2)cc1N` yielded a melting point of 200 to 202 °C.

Take `O=C(O)c1c(F)ccc(S(=O)(=O)NC2CC2)c1F`: the melting point fell in the range of 134 to 136 °C.

In turn, `CCNc1nc(C(=O)O)cs1` yielded a melting point of 215 to 217 °C.

As for `CCN(CC)S(=O)(=O)c1ccc(O)c(N)c1`, the melting point lay in the range of 74 to 76 °C.

Take `COc1ccccc1NC(=O)c1ccccc1NC(=O)CCC(=O)O`: the melting point is 127 to 129 °C.

`NC(=S)NN=Cc1cccs1` returned a melting point of 161 to 163 °C.

In the case of `CC(NC(=O)c1ccc(Br)o1)C(=O)O` (configuration not stated), the melting point lay within 169 to 171 °C.

As for `O=C(O)C=CC(=O)NCc1cccnc1`, the melting point lay in the range of 92 to 94 °C.

`N#Cc1cnc2ccccn12`: the melting point was 154 to 156 °C.

For the compound `NCc1cccc(NC(=O)c2ccncc2)c1`, the melting point lay in the range of 128 to 130 °C.

`Cc1nc(N)cc(Cl)n1` registered a melting point of 191 to 193 °C.

Consider `Cc1nc(-c2ccc(NC(=O)OCC(F)(F)F)cc2)cc(=O)[nH]1`, for which the melting point is 246 to 248 °C.

`N#Cc1ccc(Oc2cccc(N)c2)nc1` registered a melting point of 112 to 114 °C.

With `CC(=O)c1ccc(O)c(CN2CCOCC2)c1`, the melting point was 70 to 72 °C.

For `CS(=O)(=O)Nc1cccc(O)c1`, the melting point is 93 to 95 °C.

The compound `COCCN1C(=O)C(=O)c2ccc(Br)cc21` yielded a melting point of 139 to 141 °C.

`CN1CCN(S(=O)(=O)c2cccnc2NN)CC1` showed a melting point of 109 to 111 °C.

Regarding `Fc1cc(CBr)ccc1Br`, the melting point was in the range of 38 to 40 °C.

For `Nc1ccc(Br)cc1S(=O)(=O)N1CCOCC1`, the melting point was in the range of 142 to 144 °C.

Consider `Cc1ccc(-c2noc(CCC(=O)O)n2)cc1`, for which the melting point lay in the range of 143 to 145 °C.

With `CC(C)(C)c1n[nH]c(O)c1CCC#N`, the melting point fell in the range of 218 to 220 °C.

`CC1CNc2cccnc2O1` (configuration not stated) registered a melting point of 132 to 134 °C.

Consider `O=C(O)CCNC(=O)CCC(=O)O`, for which the melting point was 132 to 134 °C.

`O=C(CBr)c1ccc(S(=O)(=O)N2CCOCC2)cc1` returned a melting point of 148 to 150 °C.

In turn, `O=C(CCl)Nc1ccccc1Sc1ccccc1` gave a melting point of 159 to 161 °C.

`Cc1cc(C(=O)CCl)c(C)n1-c1cc(Cl)cc(Cl)c1` returned a melting point of 113 to 115 °C.

With `O=Cc1cc(Cl)cc([N+](=O)[O-])c1O`, the melting point is 105 to 107 °C.

The compound `CN(c1ccccc1)c1ccc(C(=O)O)cn1` displayed a melting point of 176 to 178 °C.

Consider `O=C1CN(c2cc(Cl)ccc2Cl)CC(=O)N1`, for which the melting point was 139 to 141 °C.

Compound `Cc1nn(-c2ccccc2)cc1C=O` gave a melting point of 58 to 60 °C.

Take `Cc1ccc(C(=O)C2CC2)cc1`: the melting point was in the range of 47 to 49 °C.

As to `O=C(O)c1cnc(-c2ccccc2)s1`, the melting point is 187 to 189 °C.

Compound `O=Cc1ccc(-c2ccc([N+](=O)[O-])cc2Cl)o1` returned a melting point of 136 to 138 °C.

On to `CNS(=O)(=O)c1cc(C(=O)O)ccc1Cl`, for which the melting point lay within 226 to 228 °C.

Compound `O=C1OC(=O)C(Cl)=C1Cl` gave a melting point of 107 to 109 °C.

Compound `CCN(CC)S(=O)(=O)c1ccc(NN)nc1` came in with a melting point of 134 to 136 °C.

For `NC(=S)N1CCN(c2ccccn2)CC1`, the melting point is 164 to 166 °C.

`CN(C)Cc1c(O)ccc2ccccc12` registered a melting point of 73 to 75 °C.

One may read the melting point as the temperature, or range, at which the solid turns liquid.
